Test results published in ChEMBL document CHEMBL3885861, “Open TG-GATES”.

Species: Rattus norvegicus
Test: Open TG-GATES - Regimen: Daily Repeat
Assay type: toxicity, organism-based, Sprague-Dawley
Set-up: regimen Daily Repeat, gender Male, age 6 weeks
Settings: in vivo, po, route gavage; for Bas / Eos / Fbg / Hb / Ht / Lym / MCHC / MCV / Mono / PT / Plat / RBC / Ret / WBC / Neu: tissue Blood; for ALP / ALT / AST / CRE / Ca / Cl / DBIL / GLC / IP / K / LDH / Na / PL / RALB / TBIL / TC / TG / TP / gamma-GTP / BUN: tissue Plasma
[1] = 0 mg/kg, 72 h, dose level Control, time 3 day
[2] = 0 mg/kg, […], dose level Control, time 7 day
[3] = 0 mg/kg, […], dose level Control, time 14 day
[4] = 0 mg/kg, […], dose level Control, time 28 day
[5] = 100 mg/kg, 72 h, dose level Low, time 3 day
[6] = 100 mg/kg, […], dose level Low, time 7 day
[7] = 100 mg/kg, […], dose level Low, time 14 day
[8] = 100 mg/kg, […], dose level Low, time 28 day
[9] = 300 mg/kg, 72 h, dose level Middle, time 3 day

O=C(O)c1cccnc1 [NIACIN]
TERMINAL_BW [1]: 241.1 g | Bas [1]: 0% | Eos [1]: 0.8% | Fbg [1]: 321 mg/dL | Hb [1]: 12.8 g/dL | Ht [1]: 38.2% | Lym [1]: 81.2% | MCHC [1]: 33.5% | MCV [1]: 62.4 fL | Mono [1]: 3% | PT [1]: 15.9 s | Plat [1]: 125.7 x10_4/uL | RBC [1]: 612.4 x10_4/ul | Ret [1]: 7.8% | WBC [1]: 116.2 x10_2/uL | ALP [1]: 1807.6 IU/L | ALT [1]: 48 IU/L | AST [1]: 73.2 IU/L | CRE [1]: 0.2 mg/dL | Ca [1]: 10.7 mg/dL | Cl [1]: 104.2 meq/L | DBIL [1]: 0 mg/dL | GLC [1]: 201.8 mg/dL | IP [1]: 7.7 mg/dL | K [1]: 4.4 meq/L | LDH [1]: 161.4 IU/L | Na [1]: 139.2 meq/L | PL [1]: 151.6 mg/dL | RALB [1]: 3.1 g/dL | TBIL [1]: 0 mg/dL | TC [1]: 80 mg/dL | TG [1]: 92.8 mg/dL | TP [1]: 5.6 g/dL | gamma-GTP [1]: 1.4 IU/L | TERMINAL_BW [2]: 268.8 g | TERMINAL_BW [3]: 327.5 g | TERMINAL_BW [4]: 405.7 g | Bas [2]: 0% | Eos [2]: 1% | Fbg [2]: 334.8 mg/dL | Ht [2]: 41.3% | Lym [2]: 78.2% | MCHC [2]: 34.3% | Mono [2]: 3.2% | Neu [2]: 16.8% | PT [2]: 16.5 s | Plat [2]: 116.1 x10_4/uL | RBC [2]: 681 x10_4/ul | Ret [2]: 5.5% | WBC [2]: 120.8 x10_2/uL | Bas [3]: 0% | Eos [3]: 1% | Fbg [3]: 329 mg/dL | Ht [3]: 41.5% | Lym [3]: 77.8% | MCHC [3]: 34.2% | MCV [3]: 60.4 fL | Mono [3]: 2.6% | Neu [3]: 17% | PT [3]: 15.9 s | Plat [3]: 115.7 x10_4/uL | RBC [3]: 688.8 x10_4/ul | Ret [3]: 5.1% | WBC [3]: 127.5 x10_2/uL | Bas [4]: 0% | Eos [4]: 1.2% | Fbg [4]: 331.4 mg/dL | Hb [4]: 15 g/dL | Ht [4]: 42.7% | Lym [4]: 80.6% | MCHC [4]: 35.2% | MCV [4]: 56.6 fL | Mono [4]: 2% | Neu [4]: 15% | PT [4]: 16.5 s | Plat [4]: 89.6 x10_4/uL | RBC [4]: 754.4 x10_4/ul | Ret [4]: 3% | WBC [4]: 119.1 x10_2/uL | ALP [2]: 1431.4 IU/L | ALT [2]: 37.2 IU/L | AST [2]: 67 IU/L | CRE [2]: 0.1 mg/dL | Ca [2]: 10.8 mg/dL | Cl [2]: 105.2 meq/L | DBIL [2]: 0 mg/dL | GLC [2]: 190.4 mg/dL | IP [2]: 7.4 mg/dL | K [2]: 4.2 meq/L | LDH [2]: 155.6 IU/L | Na [2]: 139.8 meq/L | PL [2]: 160.4 mg/dL | RALB [2]: 3 g/dL | TBIL [2]: 0 mg/dL | TC [2]: 78.6 mg/dL | TG [2]: 130 mg/dL | TP [2]: 5.7 g/dL | gamma-GTP [2]: 1.6 IU/L | ALP [3]: 1595.6 IU/L | AST [3]: 68 IU/L | CRE [3]: 0.2 mg/dL | Ca [3]: 10.6 mg/dL | Cl [3]: 104.2 meq/L | DBIL [3]: 0 mg/dL | GLC [3]: 198.2 mg/dL | IP [3]: 7.1 mg/dL | K [3]: 4 meq/L | LDH [3]: 163.6 IU/L | Na [3]: 138 meq/L | PL [3]: 156 mg/dL | RALB [3]: 3.1 g/dL | TBIL [3]: 0.006 mg/dL | TC [3]: 75.6 mg/dL | TG [3]: 144.2 mg/dL | TP [3]: 5.9 g/dL | gamma-GTP [3]: 1 IU/L | ALP [4]: 1086.6 IU/L | ALT [4]: 37.4 IU/L | AST [4]: 63.8 IU/L | BUN [4]: 17.8 mg/dL | CRE [4]: 0.2 mg/dL | Ca [4]: 10.1 mg/dL | Cl [4]: 106.4 meq/L | DBIL [4]: 0 mg/dL | GLC [4]: 214.4 mg/dL | IP [4]: 6.9 mg/dL | K [4]: 4.2 meq/L | LDH [4]: 150.6 IU/L | Na [4]: 142.8 meq/L | PL [4]: 149.4 mg/dL | RALB [4]: 3.1 g/dL | TBIL [4]: 0.012 mg/dL | TC [4]: 76.6 mg/dL | TG [4]: 121 mg/dL | TP [4]: 5.9 g/dL | gamma-GTP [4]: 2.4 IU/L | TERMINAL_BW [5]: 239.7 g | Bas [5]: 0% | Eos [5]: 1.2% | Fbg [5]: 317.2 mg/dL | Hb [5]: 13.7 g/dL | Ht [5]: 40.5% | Lym [5]: 70.2% | MCV [5]: 63.5 fL | Mono [5]: 4% | Neu [5]: 23.2% | Plat [5]: 107.5 x10_4/uL | RBC [5]: 637 x10_4/ul | Ret [5]: 6.9% | WBC [5]: 128.4 x10_2/uL | ALP [5]: 1717.8 IU/L | ALT [5]: 49 IU/L | AST [5]: 79.2 IU/L | BUN [5]: 16 mg/dL | CRE [5]: 0.1 mg/dL | Ca [5]: 10.8 mg/dL | Cl [5]: 104.2 meq/L | DBIL [5]: 0 mg/dL | GLC [5]: 199.8 mg/dL | IP [5]: 7.4 mg/dL | K [5]: 3.9 meq/L | LDH [5]: 171.8 IU/L | Na [5]: 139.2 meq/L | PL [5]: 163.8 mg/dL | RALB [5]: 3.1 g/dL | TBIL [5]: 0 mg/dL | TC [5]: 84.2 mg/dL | TG [5]: 110.8 mg/dL | TP [5]: 5.8 g/dL | gamma-GTP [5]: 1.2 IU/L | TERMINAL_BW [6]: 273.1 g | TERMINAL_BW [7]: 326.9 g | TERMINAL_BW [8]: 387.9 g | Bas [6]: 0% | Eos [6]: 1% | Fbg [6]: 316 mg/dL | Hb [6]: 13.5 g/dL | Ht [6]: 39.5% | Lym [6]: 82% | MCHC [6]: 34.1% | MCV [6]: 60.8 fL | Mono [6]: 3% | Neu [6]: 12.8% | PT [6]: 16 s | Plat [6]: 109.3 x10_4/uL | RBC [6]: 650 x10_4/ul | Ret [6]: 5.9% | WBC [6]: 109.2 x10_2/uL | Bas [7]: 0% | Eos [7]: 1% | Fbg [7]: 330.8 mg/dL | Ht [7]: 41.5% | Lym [7]: 75.2% | MCHC [7]: 34% | Mono [7]: 2.6% | Neu [7]: 20% | PT [7]: 15.8 s | Plat [7]: 107.6 x10_4/uL | RBC [7]: 685 x10_4/ul | Ret [7]: 4.7% | WBC [7]: 102.7 x10_2/uL | Bas [8]: 0% | Eos [8]: 1% | Fbg [8]: 330.4 mg/dL | Hb [8]: 15.2 g/dL | Ht [8]: 43.1% | Lym [8]: 83.4% | MCHC [8]: 35.3% | MCV [8]: 56 fL | Mono [8]: 2.4% | Neu [8]: 11.8% | PT [8]: 16.5 s | Plat [8]: 102.2 x10_4/uL | RBC [8]: 770 x10_4/ul | Ret [8]: 2.8% | WBC [8]: 117.4 x10_2/uL | ALP [6]: 1740.2 IU/L | ALT [6]: 44.4 IU/L | AST [6]: 69 IU/L | BUN [6]: 17.2 mg/dL | CRE [6]: 0.2 mg/dL | Ca [6]: 10.7 mg/dL | Cl [6]: 104.8 meq/L | DBIL [6]: 0 mg/dL | GLC [6]: 171.4 mg/dL | IP [6]: 7.3 mg/dL | K [6]: 4.7 meq/L | LDH [6]: 141 IU/L | Na [6]: 138.8 meq/L | PL [6]: 145 mg/dL | RALB [6]: 2.9 g/dL | TBIL [6]: 0 mg/dL | TC [6]: 66.6 mg/dL | TG [6]: 150 mg/dL | TP [6]: 5.5 g/dL | gamma-GTP [6]: 1.4 IU/L | ALP [7]: 1532.6 IU/L | ALT [7]: 42.8 IU/L | AST [7]: 73.6 IU/L | BUN [7]: 17 mg/dL | CRE [7]: 0.2 mg/dL | Ca [7]: 10.5 mg/dL | Cl [7]: 104.6 meq/L | DBIL [7]: 0 mg/dL | GLC [7]: 196.4 mg/dL | IP [7]: 6.4 mg/dL | K [7]: 4 meq/L | LDH [7]: 209 IU/L | Na [7]: 138.4 meq/L | PL [7]: 144.4 mg/dL | RALB [7]: 3 g/dL | TBIL [7]: 0.002 mg/dL | TC [7]: 66.8 mg/dL | TG [7]: 150.8 mg/dL | TP [7]: 5.8 g/dL | gamma-GTP [7]: 1.4 IU/L | ALP [8]: 1249.8 IU/L | ALT [8]: 39.8 IU/L | AST [8]: 64.6 IU/L | BUN [8]: 18.2 mg/dL | CRE [8]: 0.2 mg/dL | Ca [8]: 10.4 mg/dL | Cl [8]: 107 meq/L | DBIL [8]: 0 mg/dL | GLC [8]: 192.8 mg/dL | IP [8]: 6.5 mg/dL | K [8]: 4.2 meq/L | LDH [8]: 129.4 IU/L | Na [8]: 143.4 meq/L | PL [8]: 147.6 mg/dL | RALB [8]: 3.1 g/dL | TBIL [8]: 0.014 mg/dL | TC [8]: 70.6 mg/dL | TG [8]: 158.8 mg/dL | TP [8]: 6 g/dL | gamma-GTP [8]: 2 IU/L | TERMINAL_BW [9]: 241.8 g | Bas [9]: 0%
